Test results taken from patent US8609692B2, “TRPV1 antagonists” (AbbVie Inc., priority 2008, dated 2013).

Tests used:
[1] = Rat telemetry protocol (core body temperature); assay type: in vivo; conditions: core body temperature of rats at one hour post dosing (100 μmol/kg, p.o.), relative to vehicle
Procedure: Male, Sprague Dawley rats, 225-250 grams were anesthetized with Sevoflurane (Abbott Laboratories). Rats were placed on a heating pad and covered with a sterile surgical drape. A ventral midline abdominal incision was made and sterile cotton tip applicators were used to gently move internal tissue and expose the abdominal aorta for implantation of the telemetry catheter (Data Sciences International; TL11M2-050-PXT). Blood flow was temporarily stopped to the lower extremities (5-7 min) with Diffenbach clamps to allow the insertion of the telemetry catheter into the abdominal aorta. Once inserted, a sterile cellulose patch was placed over the catheter/aorta and secured using a small amount of tissue adhesive (Vetbond, 3M). Once catheter placement was complete, the clamps were removed and blood flow was restored to the lower extremities. The transmitter was placed in the intraperitoneal cavity. The transmitter suture rib was sewn into the abdominal sutures to secure it in place. The skin was closed using sterile wound clips and the animal removed from Sevoflurane. Buprenex ([…] s.c.; Phoenix) was administered for post-operative analgesia. Animals were maintained on a heating pad until ambulatory, and then individually housed with food and water ad lib. Surgical staples were removed after 7-10 days post-implantation. Rats were allowed a 2-week post-surgical recovery period before treatment with test compound. Oral dosing (p.o.) was at time zero, with rats receiving a single dose of vehicle (10% EtOH, 20% Tween-80, 70% PEG-400) or a 100 μmol/kg dose of compound dissolved in vehicle. Temperature measurements were recorded every 15 minutes for the duration of the study (24 hours).
The term “core body temperature” as used herein, means the temperature measured in the intraperitoneal cavity.

[2] = molecular target: T1, human TRPV1 receptor (hTRPV1) (Homo sapiens, UniProt Q8NER1); test: Capsaicin activation assay (Ca2+ influx, FLIPR); assay type: cell-based; conditions: 0.05 μM capsaicin, 1321N1 cells expressing hTRPV1
T1 construct: expressed in transfected cells
Procedure: Dulbecco's modified Eagle medium (D-MEM) (with 4.5 mg/mL glucose) and fetal bovine serum were obtained from Hyclone Laboratories, Inc. (Logan, Utah). Dulbecco's phosphate-buffered saline (D-PBS) (with 1 mg/mL glucose and 3.6 mg/l Na pyruvate, without phenol red), L-glutamine, hygromycin B, and Lipofectamine® were obtained from Life Technologies (Grand Island, N.Y.). G418 sulfate was obtained from Calbiochem-Novabiochem Corp. (San Diego, Calif.). Capsaicin (8-methyl-N-vanillyl-6-nonenamide) was obtained from Sigma-Aldrich, Co. (St. Louis, Mo.). Fluo-4 AM (N-[4-[6-[(acetyloxy)methoxy]-2,7-difluoro-3-oxo-3H-xanthen-9-yl]-2-[2-[2-[bis[2-[(acetyloxy)methoxy]-2-oxyethyl]amino]-5-methyl-phenoxy]ethoxy]phenyl]-N-[2-[(acetyloxy)methoxy]-2-oxyethyl]-glycine, (acetyloxy)methyl ester) was purchased from Molecular Probes (Eugene, Oreg.).
The cDNAs for the human TRPV1 receptor (hTRPV1) were isolated by reverse transcriptase-polymerase chain reaction (RT-PCR) from human small intestine poly A+RNA supplied by Clontech (Palo Alto, Calif.) using primers designed surrounding the initiation and termination codons identical to the published sequences (Hayes et al. Pain 2000, 88, 205-215). The resulting cDNA PCR products were subcloned into pCIneo mammalian expression vector (Promega) and fully sequenced using fluorescent dye-terminator reagents (Prism, Perkin-Elmer Applied Biosystems Division) and a Perkin-Elmer Applied Biosystems Model 373 DNA sequencer or Model 310 genetic analyzer. Expression plasmids encoding the hTRPV1 cDNA were transfected individually into 1321N1 human astrocytoma cells using Lipofectamine®. Forty-eight hours after transfection, the neomycin-resistant cells were selected with growth medium containing 800 μg/mL Geneticin (Gibco BRL). Surviving individual colonies were isolated and screened for TRPV1 receptor activity. Cells expressing recombinant homomeric TRPV1 receptors were maintained at 37° C. in D-MEM containing 4 mM L-glutamine, 300 μg/mL G418 (Cal-biochem) and 10% fetal bovine serum under a humidified 5% CO2 atmosphere.
The functional activity of compounds at the TRPV1 receptor was determined with a Ca^2+ influx assay and measurement of intracellular Ca^2+ levels ([Ca^2+]i). All compounds were tested over an 11-point half-log concentration range. Compound solutions were prepared in D-PBS (4× final concentration), and diluted serially across 96-well v-bottom tissue culture plates using a Biomek 2000 robotic automation workstation (Beckman-Coulter, Inc., Fullerton, Calif.). A 0.2 μM solution of the TRPV1 agonist capsaicin was also prepared in D-PBS. The fluorescent Ca^2+ chelating dye Fluo-4 AM was used as an indicator of the relative levels of [Ca^2+]i in a 96-well format using a Fluorescence Imaging Plate Reader (FLIPR) (Molecular Devices, Sunnyvale, Calif.). Cells were grown to confluency in 96-well black-walled tissue culture plates. Then, prior to the assay, the cells were loaded with 100 μL per well of Fluo-4 AM (2 μM, in D-PBS) for 1-2 hours at 23° C. Washing of the cells was performed to remove extracellular Fluo-4 AM (2×1 mL D-PBS per well), and afterward, the cells were placed in the reading chamber of the FLIPR instrument. 50 μL of the compound solutions were added to the cells at the 10 second time mark of the experimental run. Then, after a 3-minute time delay, 50 μL of the capsaicin solution was added at the, 190 second time mark (0.05 μM final concentration)(final volume=200 μL) to challenge the TRPV1 receptor. Time length of the experimental run was 240 seconds. Fluorescence readings were made at 1 to 5 second intervals over the course of the experimental run. The peak increase in relative fluorescence units (minus baseline) was calculated from the 190 second time mark to the end of the experimental run, and expressed as a percentage of the 0.05 μM capsaicin (control) response. […]

T1 sequence (Q8NER1 whole entry): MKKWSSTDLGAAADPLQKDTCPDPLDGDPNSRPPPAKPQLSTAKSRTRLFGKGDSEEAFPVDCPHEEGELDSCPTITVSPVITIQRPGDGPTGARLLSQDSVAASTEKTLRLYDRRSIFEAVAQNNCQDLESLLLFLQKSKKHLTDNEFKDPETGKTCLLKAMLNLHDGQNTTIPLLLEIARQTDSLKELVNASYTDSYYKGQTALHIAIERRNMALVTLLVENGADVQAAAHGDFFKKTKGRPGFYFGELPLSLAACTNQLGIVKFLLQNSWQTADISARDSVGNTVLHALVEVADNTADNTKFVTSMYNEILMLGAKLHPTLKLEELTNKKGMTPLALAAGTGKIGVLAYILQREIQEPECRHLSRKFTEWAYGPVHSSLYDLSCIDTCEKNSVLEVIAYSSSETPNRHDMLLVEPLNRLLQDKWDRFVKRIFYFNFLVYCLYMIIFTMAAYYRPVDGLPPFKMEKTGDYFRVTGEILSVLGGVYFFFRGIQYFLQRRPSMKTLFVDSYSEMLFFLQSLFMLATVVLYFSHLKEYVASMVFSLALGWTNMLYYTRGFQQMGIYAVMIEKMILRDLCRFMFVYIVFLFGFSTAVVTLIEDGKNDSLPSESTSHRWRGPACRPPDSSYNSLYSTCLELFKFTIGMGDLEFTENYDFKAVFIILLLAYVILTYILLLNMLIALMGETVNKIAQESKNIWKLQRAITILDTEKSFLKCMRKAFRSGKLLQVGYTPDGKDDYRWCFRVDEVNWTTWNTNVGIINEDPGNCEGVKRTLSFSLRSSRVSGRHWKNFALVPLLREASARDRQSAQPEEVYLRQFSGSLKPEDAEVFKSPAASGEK

| IC50 [2] | Compound | Δ Temp [1] |
| --- | --- | --- |
| 35 nM | O=C(Nc1cccc2c1C[C@H](O)CC2)N[C@@H]1CC(CF)(CF)Oc2cc(Cl)ccc21 [Example 105, N-[(4R)-7-chloro-2,2-bis(fluoromethyl)-3,4-dihydro-2H-chromen-4-yl]-N′-[(7R)-7-hydroxy-5,6,7,8-tetrahydronaphthalen-1-yl]urea] | 1.1 °C |
| 7 nM | Cc1cc2c(NC(=O)N[C@@H]3CC(C)(C)Oc4c3ccc(C(F)(F)F)c4F)cccc2cn1 [Example 99, N-[(4R)-8-fluoro-2,2-dimethyl-7-(trifluoromethyl)-3,4-dihydro-2H-chromen-4-yl]-N′-(3-methylisoquinolin-5-yl)urea] | 0.8 °C |
| 20 nM | Cn1ncc2c(NC(=O)N[C@@H]3CC(C)(C)Oc4c3cccc4C(F)(F)F)cccc21 [Example 42, N-[(4R)-2,2-dimethyl-8-(trifluoromethyl)-3,4-dihydro-2H-chromen-4-yl]-N′-(1-methyl-1H-indazol-4-yl)urea] | 0.6 °C |
| 5 nM | CC1(C)C[C@@H](NC(=O)Nc2cccc3cnccc23)c2ccc(OC(F)(F)F)cc2O1 [Example 40, N-[(4R)-2,2-dimethyl-7-(trifluoromethoxy)-3,4-dihydro-2H-chromen-4-yl]-N′-isoquinolin-5-ylurea] | 0.8 °C |
| 9 nM | CCC1(CC)C[C@@H](NC(=O)Nc2cccc3c2C[C@@H](O)CC3)c2ccc(Cl)cc2O1 [Example 76, N-[(4R)-7-chloro-2,2-diethyl-3,4-dihydro-2H-chromen-4-yl]-N′-[(7S)-7-hydroxy-5,6,7,8-tetrahydronaphthalen-1-yl]urea] | 1.3 °C |
| 10 nM | CCC1(CC)C[C@@H](NC(=O)Nc2cccc3c2C[C@H](O)CC3)c2ccc(Cl)cc2O1 [Example 75, N-[(4R)-7-chloro-2,2-diethyl-3,4-dihydro-2H-chromen-4-yl]-N′-[(7R)-7-hydroxy-5,6,7,8-tetrahydronaphthalen-1-yl]urea] | 1.0 °C |
| 10 nM | O=C(Nc1cccc2[nH]ncc12)N[C@@H]1CCOc2c1cccc2C(F)(F)F [Example 63, N-1H-indazol-4-yl-N′-[(4R)-8-(trifluoromethyl)-3,4-dihydro-2H-chromen-4-yl]urea] | 1.0 °C |
| 35 nM | Cc1cc2c(NC(=O)N[C@@H]3CC(C)(C)Oc4cc(C(F)(F)F)ccc43)c(F)ccc2cn1 [Example 125, N-[(4R)-2,2-dimethyl-7-(trifluoromethyl)-3,4-dihydro-2H-chromen-4-yl]-N′-(6-fluoro-3-methylisoquinolin-5-yl)urea] | 0.5 °C |
| 22 nM | CCC1(CC)C[C@@H](NC(=O)Nc2cccc3c2cnn3C)c2cc(F)cc(F)c2O1 [Example 60, N-[(4R)-2,2-diethyl-6,8-difluoro-3,4-dihydro-2H-chromen-4-yl]-N′-(1-methyl-1H-indazol-4-yl)urea] | 0.7 °C |
| 23 nM | CC1(C)C[C@@H](NC(=O)Nc2cccc3c2C[C@H](O)CC3)c2ccc(OC(F)(F)F)cc2O1 [Example 115, N-[(4R)-2,2-dimethyl-7-(trifluoromethoxy)-3,4-dihydro-2H-chromen-4-yl]-N′-[(7R)-7-hydroxy-5,6,7,8-tetrahydronaphthalen-1-yl]urea] | 1.2 °C |
| 8 nM | Cc1cc2c(NC(=O)N[C@@H]3CC(C)(C)Oc4cc(OC(F)(F)F)ccc43)cccc2cn1 [Example 80, N-[(4R)-2,2-dimethyl-7-(trifluoromethoxy)-3,4-dihydro-2H-chromen-4-yl]-N′-(3-methylisoquinolin-5-yl)urea] | 1.7 °C |
| 13 nM | CCC1(CC)C[C@@H](NC(=O)Nc2cccc3c2C[C@H](O)CC3)c2ccc(F)cc2O1 [Example 74, N-[(4R)-2,2-diethyl-7-fluoro-3,4-dihydro-2H-chromen-4-yl]-N′-[(7R)-7-hydroxy-5,6,7,8-tetrahydronaphthalen-1-yl]urea] | 0.9 °C |
| 29 nM | O=C(Nc1cccc2c1C[C@H](O)CC2)N[C@@H]1CC(CF)(CF)Oc2cc(F)ccc21 [Example 89, N-[(4R)-7-fluoro-2,2-bis(fluoromethyl)-3,4-dihydro-2H-chromen-4-yl]-N′-[(7R)-7-hydroxy-5,6,7,8-tetrahydronaphthalen-1-yl]urea] | 1.3 °C |
| 37 nM | CCC1(CC)C[C@@H](NC(=O)Nc2cccc3c2cnn3C)c2cccc(C(F)(F)F)c2O1 [Example 77, N-[(4R)-2,2-diethyl-8-(trifluoromethyl)-3,4-dihydro-2H-chromen-4-yl]-N′-(1-methyl-1H-indazol-4-yl)urea] | 1.0 °C |
| 13 nM | CC1(C)C[C@@H](NC(=O)Nc2cccc3c2C[C@@H](O)CC3)c2ccc(OC(F)(F)F)cc2O1 [Example 116, N-[(4R)-2,2-dimethyl-7-(trifluoromethoxy)-3,4-dihydro-2H-chromen-4-yl]-N′-[(7S)-7-hydroxy-5,6,7,8-tetrahydronaphthalen-1-yl]urea] | 1.1 °C |
| 25 nM | Cn1ncc2c(NC(=O)N[C@@H]3CC(C)(C)Oc4cc(OC(F)(F)F)ccc43)cccc21 [Example 39, N-[(4R)-2,2-dimethyl-7-(trifluoromethoxy)-3,4-dihydro-2H-chromen-4-yl]-N′-(1-methyl-1H-indazol-4-yl)urea] | 0.7 °C |
| 229 nM | Cn1ncc2c(NC(=O)N[C@@H]3CC(C)(C)Oc4ccc(F)cc43)cccc21 [Example 1, N-[(4R)-6-fluoro-2,2-dimethyl-3,4-dihydro-2H-chromen-4-yl]-N′-(1-methyl-1H-indazol-4-yl)urea] | 0.5 °C |
| 82 nM | Cc1cc2c(NC(=O)NC3CC(C)(C)Oc4c3ccc(N3CCCCC3)c4F)cccc2cn1 (centres unmarked) [Example 117, N-(8-fluoro-2,2-dimethyl-7-piperidin-1-yl-3,4-dihydro-2H-chromen-4-yl)-N′-(3-methylisoquinolin-5-yl)urea] | 1.0 °C |
| 25 nM | N-[(2R,4R)-2-(fluoromethyl)-2-methyl-7-(trifluoromethyl)-3,4-dihydro-2H-chromen-4-yl]-N-(3-methylisoquinolin-5-yl)urea [Example 127] |  |
| 21 nM | N-[(4R)-2,2-diethyl-8-fluoro-3,4-dihydro-2H-chromen-4-yl]-N-isoquinolin-8-ylurea [Example 83] |  |
